Assay results reported in a melting point compilation (Tetko et al.; mined from patent text by program, amines drawn as free bases though some values may be those of a salt).

Row | melting point [°C] | SMILES
1 | 59 to 63 | CC(C)(C)OC(=O)[C@@H]1CCC(=O)N1Cc1ccccc1
2 | 162 to 163 | Oc1ccc(C2=NCCO2)cc1
3 | 295 to 300 | CCCCC1=N/C(=C\c2c[nH]c3ncc(Cl)cc23)C(=O)N1C
4 | 125 to 128 | CC(C)c1cccc(C(C)C)c1NC(=O)CN1CCN(CCSc2nc3cccc(S(C)(=O)=O)c3o2)CC1
5 | 70 to 73 | FC(F)(F)Oc1ccc(-c2nccc(Cl)n2)cc1
6 | 113 to 115 | CCN1C(=O)C(C)(C)C(=O)N(C)c2cc(CN(CCn3ccc4oc(C)cc4c3=O)Cc3cc(COC)nn3C)ccc21
7 | 175 to 177 | O=C1N(Cc2ccc(C(F)(F)F)o2)c2ccccc2C12COc1cc3c(nc12)OCO3 (centres undefined)
8 | 219 | O=P(O)(O)C(O)(Cc1ccc(Cl)cc1)P(=O)(O)O
9 | 141 to 142 | COc1ccc(N2CCN(c3c(C)c(C)c4c(c3C)CC(C)O4)CC2)cc1C (centres undefined)
10 | 184 to 186 | COc1cc([N+](=O)[O-])c2nccc(C)c2c1Oc1ccc(F)cc1
11 | 170 to 173 | NC(=O)C1(c2ccc(F)cc2)OC(=O)c2ccccc21 (centres undefined)
12 | 185 to 186 | COC(=O)Cc1ccc(O)c(C23CC4CC(CC(C4)C2)C3)c1
13 | 117 to 119 | NS(=O)(=O)c1cc2c(s1)S(=O)(=O)N(CCc1ccccc1)C[C@H]2O
14 | 288 to 294 | CNC(=O)c1ccc(N2CCN(Cc3cnc4c(c3)[nH]c(=O)n3cccc43)CC2)c(F)c1
15 | 132 to 134 | COc1ccc(C(C)N(O)C(N)=O)cc1 (centres undefined)
16 | 59 to 60 | O=[N+]([O-])CCc1ccc2ccccc2c1
17 | 54 | C=CCc1cc(C(C)=O)c(O)cc1OCCCCC#N
18 | 125 to 127 | COc1ccccc1-c1cc(=O)cc(N2CCOCC2)o1
19 | 148 to 150 | CC1(C)CCC(N2c3ccccc3Oc3ccccc32)=N1
20 | 168 to 175 | ON=C(c1ccccc1F)c1ccc(O)c(Cl)c1Cl
21 | 80 to 83 | CCC(CC)(CC(=O)Nc1cccc(SCc2ccc3cccc(F)c3n2)c1)C(=O)O
22 | 186 to 188 | COc1cccc(/C=C/C2=CCN(Cc3c[nH]c4ncccc34)CC2)c1
23 | 156 | Cc1c2n(c3ccc(Br)cc13)CCC(Br)C2=O (centres undefined)

Row | melting point [°C] | SMILES
24 | 254 to 265 | COc1ccc(Cn2c(=S)[nH]c(=O)c3[nH]cnc32)cc1OC1CCCC1
25 | 164 to 166 | CC(=O)NCCC1=C(C(C)C)Cc2cnc3c(c21)CCO3
26 | 107 to 109 | CCCCCCCCCCCCNc1nc(NCC(O)C2CC(C)(C)NC(C)(C)C2)nc(NCC(O)C2CC(C)(C)NC(C)(C)C2)n1 (centres undefined)
27 | 282 to 283 | NC(=O)c1ccc(NC(=NC(=O)c2cccc(Br)c2)NC(=O)c2ccccc2)cc1
28 | 179 | COc1ccc(CCN(C)CCc2ccc(NC(=O)c3cccc4c(=O)c5cccc(OC)c5[nH]c34)cc2)cc1OC
29 | 164 to 165 | OC1c2ccc(Cl)cc2SC1Cn1ccnc1 (centres undefined)
30 | 149 to 150 | N#CCCn1nc(O)nc1Cl
31 | 176 | N#Cc1cc(N)n(-c2c(Cl)cc(C(F)(F)F)cc2Cl)c1
32 | 68 to 70 | COc1ccc(-c2cc(=Nc3c(C)cc(C)cc3C)n(C)c(=O)n2C)cc1OC
33 | 196 to 200 | N#Cc1c(C(F)(F)F)nn(-c2c(Cl)cc(C(F)(F)F)cc2Cl)c1N
34 | 288 to 290 | CC(C)(C)C(C(N)=O)c1cccc(Nc2ncnc3[nH]cc(C(=O)c4ccccc4)c23)c1 (centres undefined)
35 | 203 to 205 | NC(=O)c1c(Cl)c(-c2ccccc2)n2c1CN(S(=O)(=O)c1ccc([N+](=O)[O-])cc1)CC2
36 | 60 to 65 | CC(=O)NC[C@H]1CN(c2ccc(N3C[C@@H]4C[C@H]3CO4)c(F)c2)C(=O)O1
37 | 67 to 69 | CCCCCCCCCCCCCCCCNc1ccc(C(=O)OCCCO)cc1
38 | 145 to 147 | COC(=O)CN(C(=O)CSc1nc2c(F)c(F)cc(F)c2s1)c1ccccc1
39 | 205 to 206 | CC1COCc2nc3c(N)nc4cc(CCS(C)(=O)=O)ccc4c3n21 (centres undefined)
40 | 228 | CNS(=O)(=O)c1cc2c(c(C(=O)NC3CCN(Cc4ccccc4)CC3)c1)OCCO2
41 | 151 to 154 | COc1cc(CCNc2ncnc3scnc23)ccc1O
42 | 221 | COc1ccc(C(=O)Nc2ccc3ccc(Br)nc3n2)cc1
43 | 198 to 199 | NCCCc1c[nH]c(-c2ccc(F)cc2)c1-c1ccncc1
44 | 288 to 290 | COc1cc(CC(C#N)=CNc2ccccc2)cc(OC)c1C(N)=O
45 | 103 to 104 | C[Si](C)(O[C@@H]1c2cc(Br)ccc2-c2ccc(Br)cc2[C@H]1O[Si](C)(C)c1ccccc1)c1ccccc1 (relative stereo)
46 | 150 to 152 | CC(C)Nc1n[nH]c(=O)n1N

Row | melting point [°C] | SMILES
47 | 134 to 135 | CS(=O)(=O)c1ccc(Oc2cccc(C(=O)Nc3ccc(F)cc3)n2)cc1
48 | 136 to 137 | Cc1ccc(S(=O)(=O)N(CCN(CC(=O)Cl)S(=O)(=O)c2ccc(C)cc2)CCN(CC(=O)Cl)S(=O)(=O)c2ccc(C)cc2)cc1
49 | 64 to 66 | CC1(C)CCC(C)(C)c2cc(S(=O)(=O)n3c(CCCC(=O)O)cc4cc(Cl)ccc43)ccc21
50 | 94.3 | COn1nnc2cc(Cn3ccnc3)ccc21
51 | 232 to 234 | CC(=O)Nc1cc(-n2c(-c3ccccc3)cc3c2CCCC3)cc(C(=O)O)c1O
52 | 82 to 87 | COC(=O)c1ccc(OCCNC(=O)C2Cc3ccccc3N2S(=O)(=O)c2ccc(-c3ccc(F)cc3)cc2)c(F)c1 (centres undefined)
53 | 255 to 256 | O=C1c2ccccc2C(=O)N1CC(=O)N1c2ccccc2N(Cc2ccccc2)C(=O)C(Cc2ccccc2)C1c1ccccc1 (centres undefined)
54 | > 300 | Oc1cc(-c2c(-c3ccccc3)nn3ccccc23)n[nH]1
55 | 106 to 107 | COc1ccc(-c2cc3c(OC)cc(OC)cc3nc2OC)cc1
56 | 128 to 130 | CC(=O)Oc1ccc(C(Cl)=CC=O)cc1[N+](=O)[O-]
57 | 234 to 235 | Cc1c(OCC(F)(F)F)ccnc1CS(=O)c1nc2cc(-n3ccnc3)c(F)cc2[nH]1 (centres undefined)
58 | 146 to 148 | CCCN1CC(c2ccc(S(C)(=O)=O)cc2)=C(c2ccc(Cl)cc2)C1=O
59 | 117 to 123 | O=C1C2CCCCC2C(=O)N1c1ccc(F)cc1F (centres undefined)
60 | 172 to 174 | CCc1nc(C)ccc1OC1SCC(O)C(O)C1O (centres undefined)
61 | 108 to 124 | CC(C(N)=O)c1ccc(C(=O)c2cccs2)cc1 (centres undefined)
62 | 178 to 180 | CS(=O)(=O)Nc1cccc(OCc2c[nH]cn2)c1
63 | 121 to 122 | C=C(C)COc1ccc(F)cc1CN(CC)c1ccc(C(=O)O)nn1
64 | 150 to 151 | O=C(O)[C@H](Cc1ccc(CC(F)(F)C(F)(F)F)cc1)[C@@H](O)c1cccc(Cl)c1 (racemic)
65 | 140 to 153 | CC(C)(O)CONC(=O)c1ccc(F)c(F)c1Nc1ccc(I)cc1Cl
66 | 129 to 130 | Cc1c(OCCSCc2ccco2)ccnc1CNc1ncncc1Cl
67 | 75 to 79 | CN(C)CCOc1cc2c(Nc3ccc(Cl)cc3Cl)c(C#N)cnc2cn1
68 | 101 to 102 | CC(C)=CCOc1ccc(C(=O)C=Cc2c(Cl)cccc2Cl)c(O)c1
69 | 62 | OC[C@@](O)(Cc1ccccc1)c1ccccc1

Row | melting point [°C] | SMILES
70 | 243 to 244 | COc1ccc(-c2cnn3c(N)c(-c4ccc(F)cc4)c(C)nc23)cc1
71 | 180 | CC(C)NC(COc1ccccc1C(=O)Nc1cccc2[nH]ccc12)NC(C)C
72 | 272 to 273 | O=C1NC(=O)C(=Cc2ccc([N+](=O)[O-])cc2)S1
73 | 168 to 169 | O=[N+]([O-])c1ccc(CNc2ncnc3c2ncn3C2OC(CO)C(O)C2O)cc1 (centres undefined)
74 | 141 to 143 | CCOc1cc2c(Nc3cc(OC)c(Cl)cc3Cl)c(C#N)cnc2cc1OCCN1CCN(C)CC1
75 | 141 | Nc1ccc(OCC(O)CO)c(O)c1 (centres undefined)
76 | 106 to 110 | CS(=O)(=O)N(Cc1cccnc1)c1cccc(C(F)(F)F)c1
77 | 155 to 157 | CC(C)(Cc1ccc2oc(-c3nc(C(C)(C)C)cs3)cc2c1)C(=O)O
78 | 126 to 127 | CC(CO)(Sc1cc2ccccc2[nH]1)c1ccccc1 (centres undefined)
79 | 209 to 210 | CCCSc1cc(C(=O)O)cc(S(N)(=O)=O)c1Oc1ccccc1
80 | 180 | Cn1cncc1C(O)(c1ccc(F)cc1)c1ccc2c(c1)C(c1cccc(Cl)c1)n1nnnc1N2 (centres undefined)
81 | 120 to 135 | COc1cc2c(cc1Nc1ncc(Cl)c(N[C@@H]3CCCC[C@H]3NS(C)(=O)=O)n1)CCN(CC(=O)N1CCCC1)CC2
82 | 212 to 213 | COc1ccc(C2=NN(c3ccc4c(c3)COC4=O)C(=O)[C@H]3CC=CC[C@@H]23)cc1Cl (relative stereo)
83 | 115 to 120 | C=CC(=O)OCCOc1ccc(-c2nc(-c3ccc(Cl)cc3)nc(-c3ccc(OCCOC(=O)C=C)cc3O)n2)c(O)c1
84 | 152 to 154 | CC(C)(C)c1ccc2c(c1)Cc1cc(C(C)(C)C)ccc1S2
85 | 226 to 228 | Cn1cc(I)c(=O)n(C)c1=O
86 | 156 to 158 | Oc1ccccc1-c1nc(-c2ccccc2)no1
87 | 147 to 151 | CC(=O)C1=CCC2C3CCC4CC(OS(=O)(=O)c5ccc(C)cc5)CCC4(C)C3C(=O)CC12C (centres undefined)
88 | 83 to 84 | CCCN(CCC)C(=O)CNc1nc(-c2ccccc2)nc(C)c1CC
89 | 100 to 104 | OCc1ncc(-c2ccc(Cl)cc2)o1
90 | 73 to 74 | CN(C)c1ccc(C2(C#N)CCCC2)cc1
91 | 204 to 207 | CC(C)c1nc2ccccn2c(=O)c1Br

Row | SMILES | melting point [°C]
92 | Nc1ccc(Cl)cc1C1=CCN(C/C=C/c2ccc(Cl)cc2)CC1 | 168 to 170
93 | O=C(O)c1cc(Cc2c[nH]cn2)ccc1O | 254 to 258
94 | CCCN(CCC)Cc1nnc(-c2ncn3c2CN(C)C(=O)c2c(Cl)cccc2-3)o1 | 188 to 195
95 | Cc1[nH]c2ccccc2c1CCN1CCN(N)CC1 | 118 to 120
96 | CCN1C(=O)C(F)N=C(c2ccccc2)c2cc(Cl)ccc21 (centres undefined) | 156 to 158
97 | Clc1ccc(C2=CCN(Cc3n[nH]c4c(Cl)cccc34)CC2)cc1 | 171 to 173
98 | CCCCC1(N(C)C)CCC(c2[nH]c3ccccc3c2CC2CCCCC2)CC1 (centres undefined) | 155 to 165
99 | O=C1CN=C(c2ccccc2Cl)c2ccccc2N1 | 109 to 111
